Results taken from patent US5498609A, “Benzoazepinyl compounds as oxytocin and vasopressin antagonists” (Otsuka Pharmaceutical Company, Limited, priority 1992, dated 1996).

How the values were obtained:
V2 receptor = biological target: T1, V2 receptor (Rattus norvegicus, UniProt Q00788); experiment: biochemical; conditions: rat kidney plasma membrane, [3H]-Arg-vasopressin, 4° C., pH 8.0, read-out: IC50 in V2 receptor binding assay
T1 construct: Using rat kidney plasma membrane preparations; from tissue; host or cells: rat kidney plasma membrane
T1 sequence (Q00788 whole entry): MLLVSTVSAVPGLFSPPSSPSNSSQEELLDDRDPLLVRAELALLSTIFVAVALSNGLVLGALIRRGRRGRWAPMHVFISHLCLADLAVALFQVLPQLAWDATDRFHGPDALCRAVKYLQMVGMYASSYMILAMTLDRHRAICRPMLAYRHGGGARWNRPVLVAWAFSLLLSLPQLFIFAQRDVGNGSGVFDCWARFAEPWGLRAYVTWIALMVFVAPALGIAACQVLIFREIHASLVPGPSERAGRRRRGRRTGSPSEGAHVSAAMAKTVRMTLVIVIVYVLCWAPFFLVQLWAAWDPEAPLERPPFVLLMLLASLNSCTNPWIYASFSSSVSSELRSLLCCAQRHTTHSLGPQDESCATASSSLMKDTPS
Description: Experiment 2: V2 receptor binding assay
Using rat kidney plasma membrane preparations prepared according to O. Hechter's method [cf: J. Bio. Chem., 253, 3211 (1978)], the plasma membrane (100000 dpm, 4×10^-10 M) of [^3 H]-Arg-vasopressin and a test compound (0.6 mg, 10^-10 to 10^-5 M) are incubated at 4° C. for 3 hours in 100 mM Tris-HCl buffer (pH: 8.0) (250 μl) containing 5 mM MgCl2, 1 mM EDTA and 0.1% BSA. After incubation, the mixture is filtered using the glass filter (GF/F) so as to separate the membrane preparation binding with vasopressin and then washed twice with the buffer (each 5 ml). This glass filter is taken out and mixed with liquid scintillation cocktail. The amount of [^3 H]-vasopressin binding with the membrane is measured by liquid scintillation counter and the rate of the inhibitory effect of the test compound is estimated according to the following equation. [formula] C1 : The amount of [^3 H]-vasopressin binding with the membrane in the presence of the test compound (known amount)
(§1) C0 : The amount of [^3 H]-vasopressin binding with the membrane in the absence of the test compound
(§2) B1 : The amount of [^3 H]-vasopressin binding with the membrane in the presence of the excess amount of vasopressin (10^-6 M)
(§3) The results are expressed as IC50 value, which is the concentration of the test compound required to achieve the inhibitory effect in the rate of 50%.

V1 receptor = V1 receptor (Rattus norvegicus, UniProt P30560); experiment: biochemical; conditions: rat liver plasma membrane, [3H]-Arg-vasopressin, 37° C., 10 minutes, pH 8.0; read-out: IC50 in V1 receptor binding assay
V1 receptor, sequence (P30560 whole entry): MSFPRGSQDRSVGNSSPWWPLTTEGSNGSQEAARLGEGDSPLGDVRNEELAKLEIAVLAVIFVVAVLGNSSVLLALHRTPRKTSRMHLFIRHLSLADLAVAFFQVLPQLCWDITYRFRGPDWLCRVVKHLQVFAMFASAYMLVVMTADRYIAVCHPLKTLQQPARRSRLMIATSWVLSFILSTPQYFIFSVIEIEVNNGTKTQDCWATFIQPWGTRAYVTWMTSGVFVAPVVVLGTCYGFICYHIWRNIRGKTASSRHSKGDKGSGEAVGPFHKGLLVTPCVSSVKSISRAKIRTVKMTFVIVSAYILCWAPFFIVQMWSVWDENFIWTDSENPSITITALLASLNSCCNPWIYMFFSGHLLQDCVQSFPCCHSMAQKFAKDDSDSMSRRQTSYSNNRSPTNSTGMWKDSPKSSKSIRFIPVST
Description: Experiment 1: V1 receptor binding assay
Using rat liver plasma membrane preparations prepared according to Ichihara's method [cf: Akira Ichihara, J. Bio. Chem., 258, 9283 (1983)], the plasma membrane (50000 dpm, 2×10^-10 M) of [^3 H]-Arg-vasopressin and a test compound (60 μg, 10^-8 to 10^-4 M) are incubated at 37° C. for 10 minutes in 100 mM Tris-HCl buffer (pH: 8.0) (250 μl) containing 5 mM MgCl2, 1 mM EDTA and 0.1% BSA. After incubation, the mixture is filtered three times using the glass filter (GF/F) so as to separate the membrane preparation binding with vasopressin and then washed with the buffer (5 ml). This glass filter is taken out and mixed with liquid scintillation cocktail. The amount of [^3 H]-vasopressin binding with the membrane is measured by liquid scintillation counter and the rate of the inhibitory effect of the test compound is estimated according to the following equation. [formula] C1 : The amount of [^3 H]-vasopressin binding with the membrane in the presence of the test compound (known amount)
as §1, §2, §3

Row | SMILES | IC50 (V2 receptor) [nM] | IC50 (V1 receptor) [nM]
1 | Cc1ccccc1C(=O)Nc1ccc(C(=O)N2CCCC(CC(=O)O)c3cc(Cl)ccc32)cn1 (centres unmarked) [Compound of Ex. 39] | 68 | 910
2 | Cc1ccccc1C(=O)Nc1ccc(C(=O)N2CCC(O)Cc3cc(Cl)ccc32)cn1 (centres unmarked) [Compound of Ex. 148] | 17 | 27
3 | O=C(Nc1ccc(C(=O)N2CCCC(O)c3cc(Cl)ccc32)cn1)c1cccs1 (centres unmarked) [Compound of Ex. 31] | 120 | 57
4 | COc1ccccc1C(=O)Nc1ccc(C(=O)N2CCCC(O)c3cc(Cl)ccc32)cn1 (centres unmarked) [Compound of Ex. 28] | 170 | 77
5 | O=C(Nc1ccc(C(=O)N2CCCC(O)c3cc(Cl)ccc32)cn1)C1CCCCC1 (centres unmarked) [Compound of Ex. 32] | 16 | 12
6 | Cc1ccccc1C(=O)Nc1ccc(C(=O)N2CCCC(O)(CO)c3cc(Cl)ccc32)cn1 (centres unmarked) [Compound of Ex. 34] | 16 | 66
7 | Cc1ccccc1C(=O)Nc1ccc(C(=O)N2CCN(C)Cc3cc(Cl)ccc32)cn1 [Compound of Ex. 47] | 89 | 150
8 | Cc1ccccc1C(=O)Nc1ccc(C(=O)N2CCCC(O)c3cc(Cl)ccc32)s1 (centres unmarked) [Compound of Ex. 48] | 300 | 67
9 | O=C(Nc1ccc(C(=O)N2CCCC(NC3CC3)c3cc(Cl)ccc32)cn1)c1ccccc1Cl (centres unmarked) [Compound of Ex. 78] | 10 | 17

Stronger by IC50 (V2 receptor), values ahead:

Row | IC50 (V2 receptor) [nM] | IC50 (V1 receptor) [nM] | SMILES
10 | 7 | 20 | Cc1ccccc1C(=O)Nc1ccc(C(=O)N2CCCC(OCC(=O)N3CCN(C)CC3)c3cc(Cl)ccc32)cn1 (centres unmarked) [Compound of Ex. 35]
11 | 5.6 | 31 | Cc1ccccc1C(=O)Nc1ccc(C(=O)N2CCCC(CCn3cncn3)c3cc(Cl)ccc32)cn1 (centres unmarked) [Compound of Ex. 140]
12 | 5.3 | 24 | CN(C)C(=O)COC1CCCN(C(=O)c2ccc(NC(=O)c3ccccc3Cl)nc2)c2ccc(Cl)cc21 (centres unmarked) [Compound of Ex. 173]
13 | 4.8 | 31 | O=C(Nc1ccc(C(=O)N2CCCC(CCn3ccnc3)c3cc(Cl)ccc32)cn1)c1ccccc1Cl (centres unmarked) [Compound of Ex. 129]
14 | 4.4 | 15 | CC(=O)N1CCN(CCOC2CCCN(C(=O)c3ccc(NC(=O)c4ccccc4Cl)nc3)c3ccc(Cl)cc32)CC1 (centres unmarked) [Compound of Ex. 181]
15 | 4.1 | 16 | Cc1ccccc1C(=O)Nc1ccc(C(=O)N2CCCC(CCNC(C)C)c3cc(Cl)ccc32)cn1 (centres unmarked) [Compound of Ex. 139]
16 | 4 | 22 | Cc1ccccc1C(=O)Nc1ccc(C(=O)N2CCCC(CC(=O)N(C)C)c3cc(Cl)ccc32)cn1 (centres unmarked) [Compound of Ex. 41]
17 | 3.7 | 41 | CNC1CCCN(C(=O)c2ccc(NC(=O)c3ccccc3C)nc2)c2ccc(Cl)cc21 (centres unmarked) [Compound of Ex. 79]
18 | 3.1 | 6.6 | CC(=O)NCCC1CCCN(C(=O)c2ccc(NC(=O)c3ccccc3C)nc2)c2ccc(Cl)cc21 (centres unmarked) [Compound of Ex. 143, 7-chloro-5-(2-acetylamino-ethyl)-1-[6-(2-methylbenzoylamino)nicotinoyl]-2,3,4,5-tetrahydro-1H-benzazepine]
19 | 3 | 43 | Cc1ccccc1C(=O)Nc1ccc(C(=O)N2CCCC(OCCO)c3cc(Cl)ccc32)cn1 (centres unmarked) [Compound of Ex. 36, 7-chloro-5-(2-hydroxyethoxy)-1-[6-(2-methylbenzoylamino)nicotinoyl]-2,3,4,5-tetrahydro-1H-benzazepine]
20 | 3 | 30 | Cc1ccccc1C(=O)Nc1ccc(C(=O)N2CCCC(CC(=O)N3CCN(C)CC3)c3cc(Cl)ccc32)cn1 (centres unmarked) [Compound of Ex. 42]
21 | 3 | 7 | Cc1ccccc1CC(=O)Nc1ccc(C(=O)N2CCCC(O)c3cc(Cl)ccc32)cn1 (centres unmarked) [Compound of Ex. 33]
22 | 1.9 | 12 | COC1CCCN(C(=O)c2ccc(NC(=O)c3ccccc3Br)nc2)c2ccc(Cl)cc21 (centres unmarked) [Compound of Ex. 73]
